Test results reported in patent US4309559A, “Sulphonamides useful as pesticides” (FBC Limited, priority 1977, dated 1982).

Key:
[1] = test system: Maize (Zea mays); test: Soil incorporation (attaclay/sand dust), growth regulatory or herbicidal effects, maize; type: in vivo; conditions: 504 h, soil incorporation 26 ppm, 21 days, 0=no effect, 100=complete kill, read-out: growth regulatory or herbicidal effect score
Method in brief: (§1)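 Dust-formulated compound incorporated in potting compost, 26 or 130 ppm w/v; seeds sown, watered, 21 d at 22° C, 65-85% RH, 14 h/day 13,000 lux. Visual growth-regulatory/herbicidal score 0 (no effect) to 100 (complete kill) vs untreated.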

[2] = test system: Cotton (Gossypium sp.); test: Pre-emergence soil surface spray, cotton; type: in vivo; conditions: soil surface spray 2.8 kg/ha, 21 days, 0=no effect, 100=complete kill
Source text: (§2) Seeds of the plant species listed below were sown in John Innes I potting compost in aluminium pans, 19 cm long×9.5 cm wide×5.0 cm high, one species per pan. The soil surface was then sprayed with a compound listed below, formulated as a solution in 1:1 by volume aqueous acetone except for the compound of Example 44 which was formulated as an aqueous suspension containing 1000 parts per million of the wetting agent Lissapol NX (nonylphenol/ethylene oxide condensate). Each compound was applied at a rate of 2.8 kg of active ingredient per hectare in 450 liters of spray liquid per hectare. The pans were then watered, and placed in a controlled environment room (22° C., relative humidity 65-85%, 14 hours per day artificial illumination at 17,000 lux) for 21 days. The plants were then visually assessed for any growth regulatory or herbicidal effects. All differences from an untreated control were scored on a scale from 0-100, where 0 signifies no effect and 100 signifies complete kill.

[3] = test system: Barnyardgrass (Echinochloa crus-galli); test: Pre-emergence soil surface spray, barnyardgrass; type: in vivo; conditions: soil surface spray 2.8 kg/ha, 21 days, 0=no effect, 100=complete kill
Source text: as §2

[4] = test system: Tomato (Lycopersicon esculentum); test: Pre-emergence soil surface spray, tomato; type: in vivo; conditions: soil surface spray 2.8 kg/ha, 21 days, 0=no effect, 100=complete kill
Source text: as §2

[5] = test system: Wheat (Triticum aestivum); test: Pre-emergence soil surface spray, wheat; type: in vivo; conditions: soil surface spray 2.8 kg/ha, 21 days, 0=no effect, 100=complete kill
Source text: as §2

[6] = test system: Carrot (Daucus carota); test: Pre-emergence soil surface spray, carrot; type: in vivo; conditions: soil surface spray 2.8 kg/ha, 21 days, 0=no effect, 100=complete kill
Source text: as §2

[7] = test system: Ryegrass (Lolium perenne); test: Soil incorporation (attaclay/sand dust), growth regulatory or herbicidal effects, ryegrass; type: in vivo; conditions: 504 h, soil incorporation 26 ppm, 21 days, 0=no effect, 100=complete kill, read-out: growth regulatory or herbicidal effect score
Method in brief: as §1

[8] = test system: Mustard (Sinapis alba); test: Pre-emergence soil surface spray, mustard; type: in vivo; conditions: soil surface spray 2.8 kg/ha, 21 days, 0=no effect, 100=complete kill
Source text: as §2

[9] = test system: Fathen (Chenopodium album); test: Pre-emergence soil surface spray, fathen; type: in vivo; conditions: soil surface spray 2.8 kg/ha, 21 days, 0=no effect, 100=complete kill
Source text: as §2

[10] = test system: Oat (Avena sativa); test: Post-emergence foliar spray, herbicidal/growth regulant response, oat; type: in vivo; conditions: 168 h, foliar spray 11.2 kg/ha, 7 days, 0=no effect, 100=complete kill, read-out: herbicidal or growth regulant response index
Protocol: (§3) Seeds of the plant species listed below were sown in anodised aluminium pans, 19 cm long×9.5 cm wide×5 cm deep, containing John Innes I potting compost. They were then watered and placed in a controlled environment room (22° C.; 65-85% relative humidity; 14 hours per day artificial illumination at 13,000 lux). Fourteen days after sowing, the seedlings received a foliar spray of a compound listed below, formulated as a solution in 1:1 by volume aqueous acetone. The concentration of active ingredient and volume of application were adjusted so as to be equivalent to a rate of 11.2 kg/ha in 450 liters per hectare. After seven days growth in the controlled environment room, the plants were visually assessed for any herbicidal or growth regulant response. All differences from the untreated control were scored according to an index where 0=no effect and 100=complete kill.
(§4) The product of Example 95 was tested according to the procedure of Examples 49-55.

[11] = test system: Oats (Avena sativa); test: Soil incorporation (attaclay/sand dust), growth regulatory or herbicidal effects, oats; type: in vivo; conditions: 504 h, soil incorporation 26 ppm, 21 days, 0=no effect, 100=complete kill, read-out: growth regulatory or herbicidal effect score
Method in brief: as §1

[12] = test system: cucumber powdery mildew Erysiphe cichoracearum; test: Cucumber powdery mildew control on cucumber plants; type: in vivo; conditions: 2000 mg per liter; soil and leaves; 14 days; controls less than 5%
[13] = test system: Sugarbeet (Beta vulgaris); test: Post-emergence foliar spray, herbicidal/growth regulant response, sugarbeet; type: in vivo; conditions: 168 h, foliar spray 11.2 kg/ha, 7 days, 0=no effect, 100=complete kill, read-out: herbicidal or growth regulant response index
Protocol: as §3, §4

[14] = test system: Peas (Pisum sativum); test: Soil incorporation (attaclay/sand dust), growth regulatory or herbicidal effects, peas; type: in vivo; conditions: Lathyrus oleraceus, 504 h, soil incorporation 26 ppm, 21 days, 0=no effect, 100=complete kill, read-out: growth regulatory or herbicidal effect score
Method in brief: as §1

[15] = test system: Peas (Pisum sativum); test: Post-emergence foliar spray, herbicidal/growth regulant response, peas; type: in vivo; conditions: Lathyrus oleraceus, 168 h, foliar spray 11.2 kg/ha, 7 days, 0=no effect, 100=complete kill, read-out: herbicidal or growth regulant response index
Protocol: as §3, §4

[16] = test system: Barley (Hordeum vulgare); test: Pre-emergence soil surface spray, barley; type: in vivo; conditions: soil surface spray 2.8 kg/ha, 21 days, 0=no effect, 100=complete kill
Source text: as §2

[17] = test system: Mustard (Sinapis alba); test: Soil incorporation (attaclay/sand dust), growth regulatory or herbicidal effects, mustard; type: in vivo; conditions: 504 h, soil incorporation 26 ppm, 21 days, 0=no effect, 100=complete kill, read-out: growth regulatory or herbicidal effect score
Method in brief: as §1

[18] = test system: Blackgrass (Alopecurus myosuroides); test: Pre-emergence soil surface spray, blackgrass; type: in vivo; conditions: soil surface spray 2.8 kg/ha, 21 days, 0=no effect, 100=complete kill
Source text: as §2

[19] = test system: French beans (Phaseolus vulgaris); test: Post-emergence foliar spray, herbicidal/growth regulant response, French beans; type: in vivo; conditions: foliar spray 11.2 kg/ha, 7 days, 0=no effect, 100=complete kill
Protocol: as §3, §4

[20] = test system: Wild Oat (Avena fatua); test: Pre-emergence soil surface spray, wild oat; type: in vivo; conditions: soil surface spray 2.8 kg/ha, 21 days, 0=no effect, 100=complete kill
Source text: as §2

[21] = test system: Ryegrass (Lolium perenne); test: Post-emergence foliar spray, herbicidal/growth regulant response, ryegrass; type: in vivo; conditions: 168 h, foliar spray 11.2 kg/ha, 7 days, 0=no effect, 100=complete kill, read-out: herbicidal or growth regulant response index
Protocol: as §3, §4

[22] = test system: Linseed (Linum usitatissimum); test: Soil incorporation (attaclay/sand dust), growth regulatory or herbicidal effects, linseed; type: in vivo; conditions: 504 h, soil incorporation 26 ppm, 21 days, 0=no effect, 100=complete kill, read-out: growth regulatory or herbicidal effect score
Method in brief: as §1

[23] = test system: Chickweed (Stellaria media); test: Pre-emergence soil surface spray, chickweed; type: in vivo; conditions: soil surface spray 2.8 kg/ha, 21 days, 0=no effect, 100=complete kill
Source text: as §2

[24] = test system: Mustard (Sinapis alba); test: Post-emergence foliar spray, herbicidal/growth regulant response, mustard; type: in vivo; conditions: 168 h, foliar spray 11.2 kg/ha, 7 days, 0=no effect, 100=complete kill, read-out: herbicidal or growth regulant response index
Protocol: as §3, §4

[25] = test system: Linseed (Linum usitatissimum); test: Post-emergence foliar spray, herbicidal/growth regulant response, linseed; type: in vivo; conditions: 168 h, foliar spray 11.2 kg/ha, 7 days, 0=no effect, 100=complete kill, read-out: herbicidal or growth regulant response index
Protocol: as §3, §4

[26] = test system: Crabgrass (Digitaria sanguinalis); test: Pre-emergence soil surface spray, crabgrass; type: in vivo; conditions: soil surface spray 2.8 kg/ha, 21 days, 0=no effect, 100=complete kill
Source text: as §2

[27] = test system: Xanthomonas malvacearum; test: Bacterial growth in dextrose nutrient broth; type: cell-based; conditions: 200 ppm weight/volume; 8 days incubation at 25° C.
Protocol: A 1% suspension/solution of the product of Example 157 in polyethylene glycol (Carbowax 400) was added to a dextrose nutrient broth to give a concentration of 1,000 parts per million (ppm) weight/volume of medium. Dilution in test tubes was then carried out to give a concentration of 200 ppm weight/volume of medium. To 8 ml quantities of broth was added 0.2 ml of a dense broth culture of the bacterium causing black arm of cotton, Xanthomonas malvacearum. After 8 days incubation at 25° C., all the broth specimens were examined for signs of bacterial growth.

[28] = test system: cabbage seeds, variety Flower of Spring; test: Phytotoxicity of chemical alone on cabbage seed germination (chemical only soil treatment); type: in vivo
Protocol: Fifteen cabbage seeds, variety Flower of Spring, were placed in a circular depression in the treated infected soil, recovered, and the whole sealed with a plastic cap. The cartons were then placed in a constant temperature room at 25° C.±1° C. Four replications per treatment were made, with one additional treatment where seeds were sown in soil which was chemically treated only, i.e. there was no infection. This latter treatment was included to measure the direct effect of the chemical on the germination of the seed. and are given in the following table. Any phytotoxicity induced by the chemical alone is deduced from the chemical only soil treatment.

[29] = test system: Pythium ultimum; test: Fungal growth on the surface of soil infected with damping-off disease organism; type: in vivo; conditions: 6 days, 25° C.
[30] = test system: Pythium ultimum; test: Cabbage seedling emergence in soil infected with Pythium ultimum; type: in vivo, Pythium ultimum (on cabbage, variety Flower of Spring); conditions: 6 days, 25° C.
Method in brief: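 Potting compost infested with one-week maize meal/sand Pythium ultimum culture (3 kg per 12 l soil), drenched with compound in Tween 20/water at 1500, 500, 150 or 50 ppm; 15 cabbage seeds sown per carton, 25° C, four replicates. After six days, soil-surface fungal growth and seedling emergence scored 0-8.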

[31] = test system: vine downy mildew, Plasmopara viticola; test: Vine downy mildew control on vine plants (application to soil and leaves); type: in vivo; conditions: 2000 ppm, 12 days, controls less than 5%
Protocol: Aqueous acetone solutions of each of the compounds listed in the Table below, containing 2000 parts per million (ppm), together with 125 ppm of a suitable wetting agent, were applied to the soil surrounding the roots and leaves of vine plants having five fully expanded leaves.
The treated plants, together with controls treated with wetting agent alone, were inoculated 24 hours after the chemical application with an aqueous suspension of sporangia of the disease organism known as vine downy mildew, Plasmopara viticola.

[32] = test system: acetylcholinesterase; test: Standard test indicative of insecticidal activity: inhibition of acetylcholinesterase; type: biochemical; conditions: 100 micromolar concentration
[33] = 100 ppm, 0-8 scale (Examples 233, 234)
[34] = 300 ppm, 0-8 scale (Examples 233, 234, 268)

CCOC(=O)C(C)N(c1c(C)cccc1C)S(C)(=O)=O (stereo not drawn) [Example 15]
plant injury at 26 µg/mL [1]: 50% | growth regulatory or herbicidal effect score [2]: 0 | growth regulatory or herbicidal effect score [3]: 40 | growth regulatory or herbicidal effect score [4]: 20 | growth regulatory or herbicidal effect score [5]: 0 | growth regulatory or herbicidal effect score [6]: 0 | pest or weed control at 26 µg/mL [7]: 100% | growth regulatory or herbicidal effect score [8]: 10 | growth regulatory or herbicidal effect score [9]: 100 | plant injury at 11200 g/ha [10]: 5% | plant injury at 26 µg/mL [11]: 20% | fungus control, cucumber powdery mildew [12]: 82% | plant injury at 11200 g/ha [13]: 90% | pest or weed control at 26 µg/mL [14]: 0% | pest or weed control at 11200 g/ha [15]: 5% | growth regulatory or herbicidal effect score [16]: 0 | pest or weed control at 26 µg/mL [17]: 100% | growth regulatory or herbicidal effect score [18]: 20 | herbicidal or growth regulant response index [19]: 70 | growth regulatory or herbicidal effect score [20]: 5 | pest or weed control at 11200 g/ha [21]: 10% | pest or weed control at 26 µg/mL [22]: 70% | growth regulatory or herbicidal effect score [23]: 30 | pest or weed control at 11200 g/ha [24]: 90% | pest or weed control at 11200 g/ha [25]: 90% | growth regulatory or herbicidal effect score [26]: 100

CCOC(=O)C(C)N(c1c(C)cccc1Cl)S(C)(=O)=O (stereo not drawn) [Example 22]
plant injury at 26 µg/mL [1]: 50% | growth regulatory or herbicidal effect score [2]: 0 | growth regulatory or herbicidal effect score [3]: 0 | growth regulatory or herbicidal effect score [4]: 40 | growth regulatory or herbicidal effect score [5]: 0 | growth regulatory or herbicidal effect score [6]: 0 | pest or weed control at 26 µg/mL [7]: 90% | growth regulatory or herbicidal effect score [8]: 90 | growth regulatory or herbicidal effect score [9]: 100 | plant injury at 11200 g/ha [10]: 5% | plant injury at 26 µg/mL [11]: 50% | plant injury at 11200 g/ha [13]: 80% | pest or weed control at 26 µg/mL [14]: 0% | pest or weed control at 11200 g/ha [15]: 5% | growth regulatory or herbicidal effect score [16]: 0 | pest or weed control at 26 µg/mL [17]: 100% | growth regulatory or herbicidal effect score [18]: 40 | herbicidal or growth regulant response index [19]: 80 | growth regulatory or herbicidal effect score [20]: 0 | pest or weed control at 11200 g/ha [21]: 5% | pest or weed control at 26 µg/mL [22]: 100% | growth regulatory or herbicidal effect score [23]: 50 | pest or weed control at 11200 g/ha [24]: 80% | pest or weed control at 11200 g/ha [25]: 30% | growth regulatory or herbicidal effect score [26]: 90

CS(=O)(=O)N(CC(N)=S)c1cccc(Cl)c1Cl [Example 157]
bacterial growth [27]: No growth occurred

COC(C)(CN(c1c(C)cccc1Cl)S(C)(=O)=O)OC [Example 222, N-(2,2-dimethoxypropyl)-2'-chloro-6'-methyl-methanesulphonanilide]
Phytotoxicity Score ([28]; 100 ppm): 0 | Phytotoxicity Score ([28]; 300 ppm): 0 | Mycelial Control Score [29, 33]: 3 (45-54% inhibition) | Mycelial Control Score [29, 34]: 4 (55- 64% inhibition) | Germination Score [30, 33]: 1 (20-34% inhibition) | Germination Score [30, 34]: 1 (20-34% inhibition) | % Control Vine Downing Mildew [31]: 94%

CNC(=O)ON=C(C)CN(c1c(C)cccc1C)S(C)(=O)=O [Example 248, N-[2-(methylcarbamoyloxyimino)propyl]-2',6'-dimethylmethanesulphonanilide]
inhibition of acetylcholinesterase [32]: 30%
